From patent US9499530B2 (HANGZHOU MINSHENG INSTITUTES FOR PHARMA RESEARCH, priority 2011, dated 2016) come the findings set out here.

One series deals with NCI-H1975 xenograft. The series can be described thus: Growth inhibition of NCI-H1975 xenograft in nude mice. It is filed as in vivo. To be noted: for T/C (%) / Tumor volume (mm^3) D 28: 5 consecutive days weekly for four weeks, D 28; for activity against NC1-H1975 (in words): tumor line with gene mutation, resistant to lapatinib. Here is the method:
Administration route: intragastric administration. Administration volume: 0.1 ml/10 g. Administration and frequency: administrating for 5 consecutive days and suspending administration for two days weekly for four weeks. Observation time: continuous observation for 28 days after starting administration. The tumor volume was measured twice a week. At the end of the experiment, the animals were sacrificed, weighed and photographed. Statistical method: SPSS 10.0 statistical software package, one-factor analysis of variance.

Series [1] relates to human lung cancer A549 xenograft. The series can be described thus: Growth inhibition of A549 xenograft in nude mice. It is filed as in vivo. Conditions: for TV (mm^3) End / TV (mm^3) Start / T/C (%): A549 xenograft; for TV (mm^3) End / TV (mm^3) Start / Weight (g) End / Weight (g) Start / T/C (%): 200 mg/kg intragastric; for TV (mm^3) End / Weight (g) End / T/C (%): 5 times per week for four weeks; for TV (mm^3) Start / Weight (g) Start: start of dosing; for Weight (g) End / Weight (g) Start: nude mice with A549 xenograft; for T/C (%): relative tumor growth ratio. The text has this: Objective of the test: Determining the inhibition of some compounds of the present invention to the growth of human lung cancer A549 transplanted into nude mice and the action intensity thereof.
1. Human lung cancer A549 xenograft in nude mice, which was set up by subcutaneously transplantion of the human lung cancer A549 cell lines into right axillary fossa of nude mice. The amount of inoculation is 2×10^6 cells/mouse. Xenograft inoculated into the nude mice was passaged for 3 generations before use.
2. The solvent used in the experiments is: 0.5% of hydroxypropylmethyl cellulose and 0.1% of Tween-80.
3. Vigorous growing tumor tissues were selected to be chopped into approximately 1 mm^3. Under sterile conditions, the tumor tissue blocks were subcutaneously transplanted into right axillary fossa of nude mice. The diameters of the xenograft in nude mice were measured with a vernier caliper. When tumors reached approximately 100-300 mm^3 in size, the animals were randomly divided into groups, wherein there are 12 animals in solvent control group, and 6 animals per group in the other groups. […] The administered dosages were both 200 mg/kg, 5 times per week for consecutive four weeks. The diameters of the tumors were measured twice per week. The negative control group was intragastricly administrated the same amount of solvent. After the experiment, the mice were sacrificed. The tumors were surgically stripped and weighed. The tumor volume (TV) was calculated by the following equation:
[formula] in which a and b represents for the length and the width respectively.
According to the measured results, the relative tumor volume (RTV) was calculated. The calculation equation was: RTV=Vt/V0, wherein V0 is the tumor volume measured during cage administration (i.e. d0), Vt is the tumor volume of each measurement. The evaluation index of anti-tumor activity was the relative tumor growth ratio T/C (%), which was calculated by the following equation: […]
TRTV: treatment group's RTV; CRTV: negative control group's RTV.

Series [2] deals with EGFR (Epidermal Growth Factor Receptor 1) (Homo sapiens, UniProt P00533). The series is described as follows: ELISA protein tyrosine kinase inhibition, EGFR. The format is biochemical. To be noted: for IC50: ELISA, Poly(Glu, Tyr) 4:1 substrate, ATP 5 μM, test samples at 10-5 mol/l, read-out: EGFR inhibitory activity (IC50 class). The text has this: (§1) Determining the Effect of Test Samples at a Concentration of 10-5 Mol/l on the Activity of the Substrate Phosphoryation Catalyzed by EGFR (Epidermal Growth Factor Receptor 1), ErbB-2 (Epidermal Growth Factor Receptor 2), ErbB-4, KDR (Vascular Endothelial Growth Factor Receptor 2) Protein Tyrosine Kinases at Molecular Level
(§2) Enzyme-Linked Immunosorbent Assay (ELISA)
(§3) Main instrument: wavelength-tunable microplate reader (VERSAmax).
(§4) Main reagents: kinase reaction substrate Poly(Glu, Tyr) 4:1 from Sigma; anti-phosphotyrosine monoclonal antibody PY99 from Santa Cruz; horseradish peroxidase-labeled goat anti-mouse IgG from Calbiochem; ATP, DTT, OPD from Amresco, and ELISA plate from Corning.
(§5) Poly(Glu, Tyr)4:1 as an enzyme substrate was diluted by potassium ion-free PBS into 20 μg/ml, and an ELISA plate was coated and subjected to reaction for 12-16 h at 37° C. After the liquid in wells was removed, the plate was washed three time by T-PBS, 5 min for each time. The ELISA plate was then dried in an oven at 37° C. The coated wells were added with the test samples: the test samples were prepared for a stock solution with a concentration of 1×10^−2M in DMSO. The aliquot solution was stored at −20° C., and diluted to the desired concentration with reaction buffer before use. The resulting solution was added into the wells so that the final concentration of 10-5 mol/l in 100 μL reaction system can be obtained. At the same time, a positive control well was set up and a positive control compound Su11248 was added. ATP and test tyrosine kinases were added: ATP solution diluted with reaction buffer was added (the final concentration of ATP is 5 μM). Finally, the test tyrosine kinases solution diluted with reaction buffer was added. The total volume of the reaction system was […]. Meanwhile, a negative control well and a control well without enzyme were set up. The reaction system was placed in a wet box, and shaked for 1 hour at 37° C., shielding from light. After the reaction was complete, the plate was washed by T-PBS three times. Antibody PY99 was added at 100 μL/well; and the plate was shaked for 30 min at 37° C. After the reaction was complete, the plate was washed with T-PBS three times. Horseradish peroxidase-labeled goat anti-mouse IgG was added at 100 μL/well, and the plate was shaked for 30 min at 37° C. The plate was washed with T-PBS three times. OPD developing liquid was added at 100 μL/well, and reacted for 1-10 min at room temperature, shielding from light. 50 μL of 2 M H2SO4 was added to stop the reaction. A492 value was determined using wavelength-tunable microplate reader. The inhibition ratio of the samples can be calculated by the following equation: […]
For orientation: In an ELISA, binding on a coated surface is turned into a signal by an enzyme label.

For series [3], the target named is KDR (Vascular Endothelial Growth Factor Receptor 2) (Homo sapiens, UniProt P35968). The series is described as follows: ELISA protein tyrosine kinase inhibition, KDR. It is filed as biochemical. To be noted: for IC50: ELISA, Poly(Glu, Tyr) 4:1 substrate, ATP 5 μM, test samples at 10-5 mol/l, read-out: KDR inhibitory activity (IC50 class).
Chain of KDR (Vascular Endothelial Growth Factor Receptor 2) (P35968 20-1356): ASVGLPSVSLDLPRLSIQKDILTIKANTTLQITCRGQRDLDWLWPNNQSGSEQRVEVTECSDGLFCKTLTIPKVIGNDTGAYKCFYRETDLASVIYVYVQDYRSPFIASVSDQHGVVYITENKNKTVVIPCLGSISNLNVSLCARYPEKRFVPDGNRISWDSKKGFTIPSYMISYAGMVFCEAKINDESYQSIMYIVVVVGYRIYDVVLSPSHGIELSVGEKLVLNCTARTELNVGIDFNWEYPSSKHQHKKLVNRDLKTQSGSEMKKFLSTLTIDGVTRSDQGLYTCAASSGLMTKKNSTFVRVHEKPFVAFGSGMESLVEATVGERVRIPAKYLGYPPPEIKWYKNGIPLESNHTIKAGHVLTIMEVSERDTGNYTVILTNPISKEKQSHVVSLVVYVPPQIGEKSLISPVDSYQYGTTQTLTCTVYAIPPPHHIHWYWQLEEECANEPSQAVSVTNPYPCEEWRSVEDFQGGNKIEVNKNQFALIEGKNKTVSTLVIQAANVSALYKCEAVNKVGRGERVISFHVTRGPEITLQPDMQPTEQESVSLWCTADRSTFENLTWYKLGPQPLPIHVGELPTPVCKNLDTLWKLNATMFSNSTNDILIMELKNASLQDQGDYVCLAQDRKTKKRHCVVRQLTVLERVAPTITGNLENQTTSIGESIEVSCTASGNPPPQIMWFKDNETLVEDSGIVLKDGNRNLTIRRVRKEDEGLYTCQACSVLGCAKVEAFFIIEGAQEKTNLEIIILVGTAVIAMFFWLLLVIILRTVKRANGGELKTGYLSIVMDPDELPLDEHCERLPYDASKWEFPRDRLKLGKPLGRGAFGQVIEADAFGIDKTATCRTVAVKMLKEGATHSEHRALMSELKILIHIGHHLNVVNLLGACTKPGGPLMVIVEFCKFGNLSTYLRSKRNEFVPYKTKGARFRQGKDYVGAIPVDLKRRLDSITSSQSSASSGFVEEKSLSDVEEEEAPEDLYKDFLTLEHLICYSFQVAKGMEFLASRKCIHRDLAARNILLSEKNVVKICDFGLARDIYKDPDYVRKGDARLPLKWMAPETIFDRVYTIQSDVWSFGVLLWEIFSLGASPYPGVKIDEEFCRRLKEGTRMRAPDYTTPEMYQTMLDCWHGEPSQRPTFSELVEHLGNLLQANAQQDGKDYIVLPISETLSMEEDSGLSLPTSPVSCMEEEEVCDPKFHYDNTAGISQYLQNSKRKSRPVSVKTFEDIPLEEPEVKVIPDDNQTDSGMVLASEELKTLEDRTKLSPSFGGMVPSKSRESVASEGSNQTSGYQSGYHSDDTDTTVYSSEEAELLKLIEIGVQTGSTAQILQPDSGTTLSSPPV
Description: as §1, §2, §3, §4, §5

For series [4], the target named is ErbB-2 (Epidermal Growth Factor Receptor 2) (Homo sapiens, UniProt P04626). The series can be described thus: ELISA protein tyrosine kinase inhibition, ErbB-2. To be noted: Poly(Glu, Tyr) 4:1 substrate, ATP 5 μM, test samples at 10-5 mol/l, read-out: ErbB2 inhibitory activity (IC50 class). The format is biochemical.
Description: as §1, §2, §3, §4, §5

For a further series, the target named is ErbB-4 (Homo sapiens, UniProt Q15303). The series is described as follows: ELISA protein tyrosine kinase inhibition, ErbB-4. Conditions: for IC50: ELISA, Poly(Glu, Tyr) 4:1 substrate, ATP 5 μM, test samples at 10-5 mol/l, read-out: ErbB4 inhibitory activity (IC50 class). It is filed as biochemical.
Chain of ErbB-4 (Q15303 26-1308): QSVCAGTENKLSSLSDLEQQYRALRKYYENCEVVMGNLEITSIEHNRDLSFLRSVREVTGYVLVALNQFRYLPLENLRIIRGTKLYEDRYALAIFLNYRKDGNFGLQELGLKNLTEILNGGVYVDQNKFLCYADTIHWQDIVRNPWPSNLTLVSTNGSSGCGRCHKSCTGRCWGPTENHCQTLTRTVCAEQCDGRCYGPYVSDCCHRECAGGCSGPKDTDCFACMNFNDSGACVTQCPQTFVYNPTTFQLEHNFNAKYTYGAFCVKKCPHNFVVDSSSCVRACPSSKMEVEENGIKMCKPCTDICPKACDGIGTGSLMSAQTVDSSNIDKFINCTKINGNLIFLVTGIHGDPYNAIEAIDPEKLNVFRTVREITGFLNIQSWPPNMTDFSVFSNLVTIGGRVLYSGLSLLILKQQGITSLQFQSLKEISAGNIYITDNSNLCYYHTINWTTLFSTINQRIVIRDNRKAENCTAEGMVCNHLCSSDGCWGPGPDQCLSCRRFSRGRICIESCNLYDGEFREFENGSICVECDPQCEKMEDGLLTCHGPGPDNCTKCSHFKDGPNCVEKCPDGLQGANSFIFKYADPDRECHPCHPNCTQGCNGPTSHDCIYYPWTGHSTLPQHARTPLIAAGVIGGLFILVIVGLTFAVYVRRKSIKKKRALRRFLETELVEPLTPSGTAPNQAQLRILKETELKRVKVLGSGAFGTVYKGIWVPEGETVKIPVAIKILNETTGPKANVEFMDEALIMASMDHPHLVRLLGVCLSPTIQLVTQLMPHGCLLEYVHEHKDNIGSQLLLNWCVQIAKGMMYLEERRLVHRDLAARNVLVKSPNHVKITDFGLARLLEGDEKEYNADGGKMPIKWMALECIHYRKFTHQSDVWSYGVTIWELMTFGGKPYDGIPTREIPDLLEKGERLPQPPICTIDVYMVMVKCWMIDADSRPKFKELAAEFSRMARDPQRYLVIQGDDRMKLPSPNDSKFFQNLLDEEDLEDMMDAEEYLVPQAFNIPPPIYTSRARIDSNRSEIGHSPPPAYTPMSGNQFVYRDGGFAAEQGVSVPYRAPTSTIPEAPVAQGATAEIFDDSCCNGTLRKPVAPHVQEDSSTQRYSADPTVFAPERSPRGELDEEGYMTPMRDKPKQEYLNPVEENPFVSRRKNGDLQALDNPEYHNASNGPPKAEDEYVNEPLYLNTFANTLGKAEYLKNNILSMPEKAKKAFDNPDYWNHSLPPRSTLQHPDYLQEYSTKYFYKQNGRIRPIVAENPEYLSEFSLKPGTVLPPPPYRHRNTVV
Description: as §1, §2, §3, §4, §5

The mark [5] stands for this setting: NC1-H1975 xenograft, intragastric.

Entries after “also recorded” stand apart in the source; their conditions may differ. A value given as a limit tells only on which side of the number the result lay.

On to `COc1cc2ncnc(Nc3ccc(F)c(Cl)c3)c2cc1OCCCN1CCOCC1` [Gefitinib], for which, in the series on NCI-H1975 xenograft (setting [5]), the “T/C (%)” value is given as 87.89% and the “Tumor volume (mm^3) D 28” value worked out at 2164.44 ± 1064.85 mm^3. Further, in the series with NCI-H1975 xenograft, the “activity against NC1-H1975 (in words)” value is listed as “almost no activity”.

Regarding `CS(=O)(=O)CCNCc1ccc(-c2ccc3ncnc(Nc4ccc(OCc5cccc(F)c5)c(Cl)c4)c3c2)o1` [Lapatinib, lapatinib, reference compound], in series [1], the “TV (mm^3) End” value was 943.2 ± 225.7^▴ mm^3, the “TV (mm^3) Start” value was determined as 153.6 ± 64.8 mm^3, the “Weight (g) End” value worked out at 26.3 ± 3.3 g and the “Weight (g) Start” value amounted to 24.1 ± 2.9 g. In the series with NCI-H1975 xenograft (setting [5]), the “T/C (%)” value came to 104.26% and the “Tumor volume (mm^3) D 28” value is listed as 2420.50 ± 1405.01 mm^3.

Consider `OCCCCNCc1ccc(-c2ccc3ncnc(Nc4ccc(OCc5cccc(F)c5)c(Cl)c4)c3c2)o1` [MS1·dimethanesulfonate, N-(3-chloro-4-((3-fluorobenzyl)oxy)phenyl)-6-(5-(((4-hydroxybutyl)amino)methyl)-2-furyl)-4-quinazolinamine], for which the IC50 (in series [2]; in series [3]; in series [4]; on ErbB-4) was under 10 µM throughout.

For `OCC(CO)NCc1ccc(-c2ccc3ncnc(Nc4ccc(OCc5cccc(F)c5)c(Cl)c4)c3c2)o1` [MS6·dimethanesulfonate, N-(3-chloro-4-((3-fluorobenzyl)oxy)phenyl)-6-((5-(2-(1,3-dihydroxypropyl)amino)methyl)-2-furyl)-4-quinazolinamine], the IC50 in series [2] is under 10 µM. In addition, in series [3], the IC50 is under 10 µM. Moreover, the IC50 in series [4] is under 10 µM. The IC50 at ErbB-4 was under 10 µM. Also, in series [1], the “TV (mm^3) End” value is recorded as 844.5 ± 240.3^▴ mm^3, the “TV (mm^3) Start” value was found to be 156.9 ± 64.5 mm^3, the “T/C (%)” value is listed as 39.3% and the “Weight (g) End” value is given as 25.2 ± 1.4 g. In series [1], the “Weight (g) Start” value came out at 24.9 ± 1.3 g.

Take `OCCN(CCO)Cc1ccc(-c2ccc3ncnc(Nc4ccc(OCc5cccc(F)c5)c(Cl)c4)c3c2)o1` [MS18·dimethanesulfonate, N-(3-chloro-4-((3-fluorobenzyl)oxy)phenyl)-6-(5-((bis(2-hydroxyethyl)amino)methyl)-2-furyl)-4-quinazolinamine]: the IC50 (in series [2]; in series [3]; in series [4]; at ErbB-4) was under 10 µM throughout.

Turning to `OCCNCc1ccc(-c2ccc3ncnc(Nc4ccc(OCc5cccc(F)c5)c(Cl)c4)c3c2)o1` [MS27·dimethanesulfonate, N-(3-chloro-4-((3-fluorobenzyl)oxy)phenyl)-6-(5-(((2-hydroxyethyl)amino)methyl)-2-furyl)-4-quinazolinamine], the IC50 in series [2] was under 10 µM. Also, the IC50 in series [3] is under 10 µM. Besides, the IC50 in series [4] was under 10 µM. Besides, the IC50 at ErbB-4 was under 10 µM. For the same compound, in series [1], the “TV (mm^3) End” value was 775.6 ± 215.4^▴ mm^3, the “TV (mm^3) Start” value turned out to be 155.3 ± 71.2 mm^3, the “T/C (%)” value came to 36.4% and the “Weight (g) End” value is given as 25.6 ± 2.2 g. In series [1], the “Weight (g) Start” value is 25.0 ± 2.7 g. In the series with NCI-H1975 xenograft (setting [5]), the “T/C (%)” value was 49.8^★ % and the “Tumor volume (mm^3) D 28” value was 1214.25 ± 944.16^★ mm^3. For the same compound, in the series on NCI-H1975 xenograft (NC1-H1975 xenograft, intragastric, D 0), the “Tumor volume (mm^3) D 0” value stood at 97.06 ± 38.91 mm^3. Besides, the “activity against NC1-H1975 (in words)” value with NCI-H1975 xenograft was “good activity”.

As to `OCC(O)CNCc1ccc(-c2ccc3ncnc(Nc4ccc(OCc5cccc(F)c5)c(Cl)c4)c3c2)o1` (stereo not shown) [MS31·dimethanesulfonate, N-(3-chloro-4-((3-fluorobenzyl)oxy)phenyl)-6-(5-((1-(2,3-dihydroxypropyl)amino)methyl)-2-furyl)-4-quinazolinamine], the IC50 (in series [2]; in series [3]; in series [4]; on ErbB-4) was under 10 µM each time.

For `OCCCNCc1ccc(-c2ccc3ncnc(Nc4ccc(OCc5cccc(F)c5)c(Cl)c4)c3c2)o1` [MS42·di-p-toluenesulfonate, N-(3-chloro-4-((3-fluorobenzyl)oxy)phenyl)-6-(5-(((3-hydroxypropyl)amino)methyl)-2-furyl)-4-quinazolinamine], the IC50 (in series [2]; in series [3]; in series [4]; at ErbB-4) was under 10 µM in each case.

Consider `O=C(O)CCC(NCc1ccc(-c2ccc3ncnc(Nc4ccc(OCc5cccc(F)c5)c(Cl)c4)c3c2)o1)C(=O)O` (stereo not shown) [MS 23, N-(3-chloro-4-((3-fluorobenzyl)oxy)phenyl)-6-(5-(((1,3-dicarboxypropyl)amino)methyl)-2-furyl)-4-quinazolinamine], for which, in series [2], the IC50 is under 10 µM. Besides, in series [3], the “inhibitory activity against KDR (in words)” value is given as “better inhibitory activity; also recorded: higher inhibitory activity” and the IC50 was under 10 µM. In series [4], the IC50 is under 10 µM. Further, the IC50 at ErbB-4 was under 10 µM. Besides, in series [1], the “TV (mm^3) End” value is on record as 804.3 ± 230.3^▴ mm^3, the “TV (mm^3) Start” value is on record as 153.5 ± 74.8 mm^3, the “T/C (%)” value worked out at 38.2% and the “Weight (g) End” value was found to be 25.7 ± 2.0 g. Besides, the “Weight (g) Start” value in series [1] was 25.3 ± 1.5 g. In addition, the “growth inhibition of human lung cancer A549 compared with positive control lapatinib (in words)” value in series [1] (xenograft in nude mice, 200 mg/kg) is recorded as “better effective inhibition; also recorded: better growth inhibition effect”.

For the compound “N-(3-chloro-4-((3-fluorobenzyl)oxy)phenyl)-6-(5-((morpholinyl)methyl)-2-thienyl)-4-quinazolinamine [MS 33]”, the “inhibitory activity against EGFR (in words)” value in series [2] was “better inhibitory activity”. The IC50 in series [2] was under 10 µM; in series [3], over 10 µM; in series [4], over 10 µM; at ErbB-4, under 10 µM. Besides, the “inhibition of c-ErbB4/HER4 (in words)” value at ErbB-4 is given as “very good inhibition”.

As usually defined, the IC50 is the concentration that inhibits the measured activity by half.
